Species on record: Rattus norvegicus
Assay: Open TG-GATES - Regimen: Single
Assay type: toxicity, organism-based, Sprague-Dawley
Set-up: regimen Single, gender Male, age 6 weeks
Details: in vivo, ip, route intraperitoneal injection; for APTT / Bas / Eos / Fbg / Hb / Ht / Lym / MCH / MCHC / MCV / Mono / Neu / PT / Plat / RBC / Ret / WBC: tissue Blood; for KIDNEY_L / KIDNEY_R / KIDNEY_TOTAL: tissue Kidney; for LIVER: tissue Liver; for A/G / ALP / ALT / AST / BUN / CRE / Ca / Cl / DBIL / GLC / IP / K / LDH / Na / PL / RALB / TBIL / TC / TG / TP / gamma-GTP: tissue Plasma
[1] = 120 mg/kg, 3 h, dose level Middle
[2] = 120 mg/kg, 6 h, dose level Middle
[3] = 120 mg/kg, 9 h, dose level Middle
[4] = 120 mg/kg, 24 h, dose level Middle
[5] = 400 mg/kg, 3 h, dose level High
[6] = 400 mg/kg, 6 h, dose level High
[7] = 400 mg/kg, 9 h, dose level High
[8] = 400 mg/kg, 24 h, dose level High

CC(C)=CC(=O)C=C(C)C [PHORONE]
TERMINAL_BW [1]: 223.2 g
APTT [1]: 16.6 s
Bas [1]: 0%
Eos [1]: 0.8%
Fbg [1]: 219.8 mg/dL
Hb [1]: 13.8 g/dL
Ht [1]: 41%
Lym [1]: 74.4%
MCH [1]: 21.7 pg
MCHC [1]: 33.5%
MCV [1]: 64.6 fL
Mono [1]: 8.4%
Neu [1]: 16.2%
PT [1]: 12.2 s
Plat [1]: 124.2 x10_4/uL
RBC [1]: 635.4 x10_4/ul
Ret [1]: 8.8%
WBC [1]: 65.2 x10_2/uL
KIDNEY_L [1]: 1 g
KIDNEY_R [1]: 1 g
KIDNEY_TOTAL [1]: 2 g
LIVER [1]: 10.2 g
A/G [1]: 2.2
ALP [1]: 897.8 IU/L
ALT [1]: 34.6 IU/L
AST [1]: 76.2 IU/L
BUN [1]: 15.2 mg/dL
CRE [1]: 0.6 mg/dL
Ca [1]: 11.2 mg/dL
Cl [1]: 103 meq/L
DBIL [1]: 0.038 mg/dL
GLC [1]: 213.4 mg/dL
IP [1]: 10.1 mg/dL
K [1]: 5.1 meq/L
LDH [1]: 79.8 IU/L
Na [1]: 137.2 meq/L
PL [1]: 132.6 mg/dL
RALB [1]: 3.6 g/dL
TBIL [1]: 0.6 mg/dL
TC [1]: 79 mg/dL
TG [1]: 50.8 mg/dL
TP [1]: 5.3 g/dL
gamma-GTP [1]: 1.2 IU/L
TERMINAL_BW [2]: 221.7 g
APTT [2]: 17.1 s
Bas [2]: 0%
Eos [2]: 1%
Fbg [2]: 220.6 mg/dL
Hb [2]: 13.7 g/dL
Ht [2]: 41.3%
Lym [2]: 75.6%
MCH [2]: 21.7 pg
MCHC [2]: 33.1%
MCV [2]: 65.4 fL
Mono [2]: 4.4%
Neu [2]: 19.2%
PT [2]: 12.2 s
Plat [2]: 114 x10_4/uL
RBC [2]: 633.2 x10_4/ul
Ret [2]: 8.5%
WBC [2]: 102.3 x10_2/uL
KIDNEY_L [2]: 1 g
KIDNEY_R [2]: 1 g
KIDNEY_TOTAL [2]: 2 g
LIVER [2]: 9.9 g
A/G [2]: 1.9
ALP [2]: 687.6 IU/L
ALT [2]: 34.4 IU/L
AST [2]: 71 IU/L
BUN [2]: 15 mg/dL
CRE [2]: 0.4 mg/dL
Ca [2]: 10.7 mg/dL
Cl [2]: 104.2 meq/L
DBIL [2]: 0.032 mg/dL
GLC [2]: 194.4 mg/dL
IP [2]: 9.5 mg/dL
K [2]: 4.7 meq/L
LDH [2]: 81.6 IU/L
Na [2]: 138 meq/L
PL [2]: 130.6 mg/dL
RALB [2]: 3.6 g/dL
TBIL [2]: 0.5 mg/dL
TC [2]: 80 mg/dL
TG [2]: 29 mg/dL
TP [2]: 5.5 g/dL
gamma-GTP [2]: 2 IU/L
TERMINAL_BW [3]: 216.1 g
APTT [3]: 16.6 s
Bas [3]: 0%
Eos [3]: 0.8%
Fbg [3]: 229.2 mg/dL
Hb [3]: 13.4 g/dL
Ht [3]: 40.4%
Lym [3]: 72.6%
MCH [3]: 21.7 pg
MCHC [3]: 33.1%
MCV [3]: 65.5 fL
Mono [3]: 6.6%
Neu [3]: 20%
PT [3]: 12.1 s
Plat [3]: 113.6 x10_4/uL
RBC [3]: 617.2 x10_4/ul
Ret [3]: 8.9%
WBC [3]: 90 x10_2/uL
KIDNEY_L [3]: 1 g
KIDNEY_R [3]: 1 g
KIDNEY_TOTAL [3]: 2 g
LIVER [3]: 8.9 g
A/G [3]: 2.2
ALP [3]: 717.4 IU/L
ALT [3]: 31 IU/L
AST [3]: 66.8 IU/L
BUN [3]: 11.2 mg/dL
CRE [3]: 0.5 mg/dL
Ca [3]: 10.7 mg/dL
Cl [3]: 106.2 meq/L
DBIL [3]: 0.058 mg/dL
GLC [3]: 202.6 mg/dL
IP [3]: 10 mg/dL
K [3]: 4.7 meq/L
LDH [3]: 89.8 IU/L
Na [3]: 138.4 meq/L
PL [3]: 128 mg/dL
RALB [3]: 3.7 g/dL
TBIL [3]: 0.4 mg/dL
TC [3]: 74.2 mg/dL
TG [3]: 43.8 mg/dL
TP [3]: 5.4 g/dL
gamma-GTP [3]: 1.6 IU/L
TERMINAL_BW [4]: 229.2 g
APTT [4]: 16.9 s
Bas [4]: 0%
Eos [4]: 0.8%
Fbg [4]: 244 mg/dL
Hb [4]: 12.9 g/dL
Ht [4]: 39.2%
Lym [4]: 75.4%
MCH [4]: 21.3 pg
MCHC [4]: 32.9%
MCV [4]: 64.7 fL
Mono [4]: 6.8%
Neu [4]: 17.2%
PT [4]: 11.7 s
Plat [4]: 121.5 x10_4/uL
RBC [4]: 606.2 x10_4/ul
Ret [4]: 8.1%
WBC [4]: 94.9 x10_2/uL
KIDNEY_L [4]: 1.1 g
KIDNEY_R [4]: 1.1 g
KIDNEY_TOTAL [4]: 2.2 g
LIVER [4]: 11.9 g
A/G [4]: 2.1
ALP [4]: 860.6 IU/L
ALT [4]: 34.4 IU/L
AST [4]: 58.2 IU/L
BUN [4]: 15.8 mg/dL
CRE [4]: 0.5 mg/dL
Ca [4]: 10.9 mg/dL
Cl [4]: 103.6 meq/L
DBIL [4]: 0.03 mg/dL
GLC [4]: 194.8 mg/dL
IP [4]: 7.7 mg/dL
K [4]: 4.6 meq/L
LDH [4]: 176.4 IU/L
Na [4]: 139.2 meq/L
PL [4]: 148 mg/dL
RALB [4]: 3.7 g/dL
TBIL [4]: 0.4 mg/dL
TC [4]: 77.2 mg/dL
TG [4]: 106.2 mg/dL
TP [4]: 5.6 g/dL
gamma-GTP [4]: 0.6 IU/L
TERMINAL_BW [5]: 224 g
APTT [5]: 18 s
Bas [5]: 0%
Eos [5]: 0.8%
Fbg [5]: 206.6 mg/dL
Hb [5]: 13.7 g/dL
Ht [5]: 40.8%
Lym [5]: 81%
MCH [5]: 21.9 pg
MCHC [5]: 33.6%
MCV [5]: 65.1 fL
Mono [5]: 5%
Neu [5]: 13.6%
PT [5]: 12.9 s
Plat [5]: 130 x10_4/uL
RBC [5]: 626.2 x10_4/ul
Ret [5]: 9.1%
WBC [5]: 81.1 x10_2/uL
KIDNEY_L [5]: 0.9 g
KIDNEY_R [5]: 1 g
KIDNEY_TOTAL [5]: 1.9 g
LIVER [5]: 9.4 g
A/G [5]: 2.4
ALP [5]: 931 IU/L
ALT [5]: 51 IU/L
AST [5]: 106.6 IU/L
BUN [5]: 23.4 mg/dL
CRE [5]: 1.1 mg/dL
Ca [5]: 11 mg/dL
Cl [5]: 99.4 meq/L
DBIL [5]: 0.046 mg/dL
GLC [5]: 292.8 mg/dL
IP [5]: 9.8 mg/dL
K [5]: 4.6 meq/L
LDH [5]: 282.6 IU/L
Na [5]: 136 meq/L
PL [5]: 110.6 mg/dL
RALB [5]: 3.8 g/dL
TBIL [5]: 0.9 mg/dL
TC [5]: 67 mg/dL
TG [5]: 18 mg/dL
TP [5]: 5.4 g/dL
gamma-GTP [5]: 1.8 IU/L
TERMINAL_BW [6]: 215 g
APTT [6]: 17.1 s
Bas [6]: 0%
Eos [6]: 1.2%
Fbg [6]: 208.2 mg/dL
Hb [6]: 13.4 g/dL
Ht [6]: 40.7%
Lym [6]: 61%
MCH [6]: 21.4 pg
MCHC [6]: 33%
MCV [6]: 64.8 fL
Mono [6]: 8%
Neu [6]: 30.2%
PT [6]: 13.9 s
Plat [6]: 123.8 x10_4/uL
RBC [6]: 627.6 x10_4/ul
Ret [6]: 9.2%
WBC [6]: 84.8 x10_2/uL
KIDNEY_L [6]: 0.9 g
KIDNEY_R [6]: 1 g
KIDNEY_TOTAL [6]: 1.9 g
LIVER [6]: 8.6 g
A/G [6]: 2.2
ALP [6]: 925 IU/L
ALT [6]: 73.2 IU/L
AST [6]: 174 IU/L
BUN [6]: 23 mg/dL
CRE [6]: 0.7 mg/dL
Ca [6]: 10.5 mg/dL
Cl [6]: 106.4 meq/L
DBIL [6]: 0.048 mg/dL
GLC [6]: 168 mg/dL
IP [6]: 11.2 mg/dL
K [6]: 4.4 meq/L
LDH [6]: 277.8 IU/L
Na [6]: 138.2 meq/L
PL [6]: 110.4 mg/dL
RALB [6]: 3.7 g/dL
TBIL [6]: 1 mg/dL
TC [6]: 67.2 mg/dL
TG [6]: 24.4 mg/dL
TP [6]: 5.5 g/dL
gamma-GTP [6]: 1.4 IU/L
TERMINAL_BW [7]: 210.1 g
APTT [7]: 17.1 s
Bas [7]: 0%
Eos [7]: 1%
Fbg [7]: 209.8 mg/dL
Hb [7]: 13.4 g/dL
Ht [7]: 40.7%
Lym [7]: 56.4%
MCH [7]: 21.6 pg
MCHC [7]: 33%
MCV [7]: 65.4 fL
Mono [7]: 8%
Neu [7]: 35%
PT [7]: 13.9 s
Plat [7]: 123.6 x10_4/uL
RBC [7]: 622.2 x10_4/ul
Ret [7]: 10.3%
WBC [7]: 125.6 x10_2/uL
KIDNEY_L [7]: 1 g
KIDNEY_R [7]: 1 g
KIDNEY_TOTAL [7]: 2 g
LIVER [7]: 8.3 g
A/G [7]: 2.1
ALP [7]: 915.4 IU/L
ALT [7]: 60.2 IU/L
AST [7]: 166.6 IU/L
BUN [7]: 23.8 mg/dL
CRE [7]: 0.6 mg/dL
Ca [7]: 10.9 mg/dL
Cl [7]: 104.6 meq/L
DBIL [7]: 0.06 mg/dL
GLC [7]: 155.2 mg/dL
IP [7]: 11.6 mg/dL
K [7]: 4.1 meq/L
LDH [7]: 257 IU/L
Na [7]: 138.2 meq/L
PL [7]: 107.4 mg/dL
RALB [7]: 3.9 g/dL
TBIL [7]: 0.8 mg/dL
TC [7]: 71 mg/dL
TG [7]: 38.6 mg/dL
TP [7]: 5.8 g/dL
gamma-GTP [7]: 1.2 IU/L
TERMINAL_BW [8]: 201.7 g
APTT [8]: 24.9 s
Bas [8]: 0%
Eos [8]: 0.4%
Fbg [8]: 190.4 mg/dL
Hb [8]: 14.1 g/dL
Ht [8]: 42.5%
Lym [8]: 77%
MCH [8]: 21.6 pg
MCHC [8]: 33.1%
MCV [8]: 65.1 fL
Mono [8]: 3.2%
Neu [8]: 19.4%
PT [8]: 20 s
Plat [8]: 121.3 x10_4/uL
RBC [8]: 652.2 x10_4/ul
Ret [8]: 7.6%
WBC [8]: 140.6 x10_2/uL
KIDNEY_L [8]: 1.1 g
KIDNEY_R [8]: 1.1 g
KIDNEY_TOTAL [8]: 2.1 g
LIVER [8]: 9.4 g
A/G [8]: 2.2
ALP [8]: 828.6 IU/L
ALT [8]: 296.8 IU/L
AST [8]: 1408.4 IU/L
BUN [8]: 19.2 mg/dL
CRE [8]: 0.5 mg/dL
Ca [8]: 10.2 mg/dL
Cl [8]: 110.6 meq/L
DBIL [8]: 0.2 mg/dL
GLC [8]: 167.2 mg/dL
IP [8]: 8.4 mg/dL
K [8]: 3.9 meq/L
LDH [8]: 4785 IU/L
Na [8]: 139.2 meq/L
PL [8]: 97.6 mg/dL
RALB [8]: 3.7 g/dL
TBIL [8]: 0.6 mg/dL
TC [8]: 56.8 mg/dL
TG [8]: 23.2 mg/dL
TP [8]: 5.4 g/dL
gamma-GTP [8]: 0.8 IU/L
